In one experiment the test system is OVCA-5. The experiment is described as follows: Growth of non-prostate cancer cells (bone-derived cell lines). The experiment is classed as cell-based.
The subject of experiment [1] is PC-3M cells. The experiment is described as follows: Matrigel in vitro invasion of PC-3M cells. The class given is cell-based. The procedure: FIG. 2 illustrates the effect of NEM on in vitro invasion of PC-3M cells. The experiment used 3 well Matrigel invasion chambers (Becton Dickinson, Bedford, Mass.). Approximately 200,000 PC-3M cells were seeded in the upper chamber in RPMI 1640 medium containing 0.1% BSA (Sigma, St. Louis), 4 mM L-glutamine, 100 IU/ml penicillin G and 100 ug/ml streptomycin. The lower chamber medium contained chemoattractant medium consisting of 80% complete medium (RPMI 1640, 12% horse serum, 4% […] fetal calf serum, 4 mM L-glutamine, 100 IU/ml penicillin G and […]). Different concentrations of NEM or conditioned media from NEM-PC3-M cells that express NEM (dilutions ranging from 1 to 5) were added to the upper chamber. The experiments were carried out for 72 hours. At the end of the incubation period the Matrigel was scraped off using cotton swabs and the top insert was fixed and stained using Diff Quick staining (Dade Diagnostics, Aguada, PR). The relative invasive potential was determined by normalizing for cell growth. This was done by plating 100,000 cells in six well dishes in chemoattractant medium and determining the relative growth of cells after 72 hours. The number of cells per 100×field were expressed as mean +/−SEM.
FIG. 4 illustrates the effect of the anti-NEM antiserum on invasion of PC-3M cells. […]

Experiment [2] deals with PC-3M cells. The experiment is described as follows: 3H-thymidine incorporation (DNA synthesis) in PC-3M cells. The class given is cell-based. To be noted: 24 hours, FIG. 1. The procedure:
FIG. 1 illustrates the effect of exogenously added prostatic NEM on DNA synthesis of an aggressive prostate cancer (PC-3M) cell line. To obtain the results shown in FIG. 1, PC-3M cells were seeded at a density of 10,000 cells per well and incubated overnight in the complete medium. The cells were then washed with and incubated in serum-free medium containing the agents and 0.5 μCi of 3H-thymidine for 24 hours. At the end of incubation, the cells were washed three times with PBS-1 μM thymidine and the incorporated radioactivity was determined in TCA-precipitable fraction.
If NEM-induced DNA synthesis may influence proliferative activity of a prostate tumor and other cancer cells, then its immunoneutralization should reduce the growth. This hypothesis was tested by studying the rate of 3H-thymidine incorporation in PC-3M prostate cancer cells. The cells were treated either with non-immune antiserum or anti-NEM antiserum at a final dilution of 1:50.
For orientation: Uptake of a labelled nucleoside into DNA is a usual measure of proliferation.

Experiment [3] relates to NEM receptors on prostate cancer cells. The experiment is described as follows: Binding of NEM to its receptors on prostate cancer cells.
Experiment [4] concerns prostate cancer cell lines. To be noted: background statement; cited from earlier work.
Experiment [5] deals with NEM receptor on prostate cancer cells. The experiment is described as follows: cell-based or functional assay.

Here are results for three molecules from patent US7026454B1, “Neuroendocrine marker of prostate cancer and method for producing same” (University of Kansas Medical Center, priority 1998, dated 2006).

Where no end group is shown, it is not given here.

In the case of “NEM: novel neuroendocrine growth factor or marker isolated from prostate cancer cells; amino acid SEQ ID NO: 6 expressed in PC-3M cells (RTCVLGYLHIVPEFIESQLLGLLSPVSL; listed as Homo sapiens)”, the “growth of non-prostate cancer cells” value with OVCA-5 is “stimulates the growth”. In addition, the “invasiveness of PC-3M cells” value in the experiment with PC-3M cells [1] (all concentrations of NEM significant vs 0, P<0.05, FIG. 2) was “in a dose-dependent fashion significantly increases the invasiveness”. The increase in invasiveness with PC-3M cells [1] (from 0M to 10^-6M NEM, 72 hours, FIG. 2) came out at 70%. Further, the “concentration at which the increase in DNA synthesis was significant” value with PC-3M cells [2] (PC-3M cells) is given as no less than 10 nM. Moreover, the “3H-thymidine incorporation (DNA synthesis)” value in the experiment with PC-3M cells [2] (exogenously added NEM, serum-free medium) is on record as “stimulated 3H-thymidine incorporation in a dose-dependent fashion”. In addition, in experiment [3], the receptor binding affinity entry was “high affinity (low nM)”.
On to Pindobind, for which the “growth of prostate cancer cell lines” value in experiment [4] is “inhibit the growth”.
In experiment [5], RTCVLGYLHIVPEFIESQLLGLLSPVSL (ligand, also: 125I-labelled form used in RIA) [neuroendocrine growth factor or marker (NEM)] registered a 3H-thymidine incorporation (DNA synthesis) in PC-3M cells greater than 10 nM and an in vitro Matrigel invasion of PC-3M cells of 70%.
